Results as given in US11391740B2, “Methods and materials for identifying and treating cancer” (Mayo Foundation for Medical Education and Research, priority 2019, dated 2022).

Tests used:
C4-2ENZ-R cells = test: SRB cell proliferation assay in enzalutamide-resistant C4-2 cells; assay type: cell-based, human; conditions: for sensitivity of C4-2ENZ-R cells compared with C4-2CON cells by half maximal inhibitory concentration (IC50): C4-2ENZ-R vs C4-2CON, 4 days, FIGS. 5A-5C
Method: FIGS. 5A-5D: Dual inhibition of BET and CBP/p300 overcomes ENZ-resistance in ARPCa. A: Heatmap showing the sensitivity of control (C4-2CON) and enzalutamide-resistant C4-2 cells (C4-2ENZ-R) to various inhibitor. B-C: C4-2CON and C4-2ENZ-R cells were treated with the indicated concentrations of BET inhibitor (JQ1) and CBP/p300 inhibitor (CPI637) for 4 days, the cell proliferation was measured by SRB assay, and the 96 well plates were imaged. Data are represented as means±s.d., n=4. Statistical significance was determined by two-way ANOVA. D: C4-2ENZ-R cells were treated with the indicated concentrations of ENZ, JQ1, CPI637, or a combination of JQ1 and CPI-637, and cell proliferation was measured by a SRB assay. Data are represented as means±s.d., n=6. Statistical significance was determined by two-way ANOVA.
FIGS. 7A-7E. Full-length AR, but not AR variants, drives ENZ-resistant cell proliferation. A: C4-2CON and C4-2ENZ-R cells were treated with the indicated concentrations of ENZ, and cell proliferation was measured by SRB assay. Data are represented as means±s.d., n=6. Statistical significance was determined by two-way ANOVA. B: Heatmap showing RNA-seq read intensity of the canonical AR signature genes in C4-2CON and C4-2ENZ-R cells. C: RT-qPCR showing the mRNA level of KLK3 in C4-2CON and C4-2ENZ-R cells. Data are represented as means±s.d., n=3. Statistical significance was determined by unpaired two-tailed Student's t tests. D: Western blot analysis showing the expression of full-length (FL) AR and AR variants (Vs) in C4-2CON and C4-2ENZ-R cells. ERK2 was used as a loading control. E: UCSC genome browser tracks showing RNA-seq signals of AR and AR variants in C4-2CON and C4-2ENZ-R cells.
LNCaP, VCaP, LAPC4 PCa, and 293T cell lines were purchased from ATCC. […]
293T cells were co-transfected with control shRNA or shRNA specific for human AR, CXXC5, TET2, ID1, ID3 and PFN2. […] Cells were fixed at different time points (day 0-5) and cell growth was measured using a sulforhodamine B (SRB) assay (He et al., Nature Commun., 7:13122 (2016)).

ENZ-resistant PDXs = test: ENZ-resistant patient-derived xenograft (PDX) tumor growth in mice; assay type: in vivo; conditions: castrated male mice; ENZ 10 mg/kg, CPI637 10 mg/kg, JQ1 50 mg/kg, oral gavage 5 days per week
C4-2ENZ-R xenografts = test: C4-2ENZ-R xenograft tumor growth in SCID mice; assay type: in vivo; conditions: ENZ 10 mg/kg per day, 28 days, FIGS. 1A, 1B
Method: FIGS. 1A-1G. Genome-wide profiling of AR chromatin binding in ENZ-resistant PCa cells. A: Effect of ENZ treatment on growth of C4-2CON and C4-2ENZ-R xenografts in mice. C4-2ENZ-R and C4-2CON cells suspended in 0.1 mL matrigel were injected into the right flank of 6-week old male SCID mice. After the volume of tumor nodules reached about 100 mm^3, mice were randomly assigned within control and ENZ-resistant groups and were treated with ENZ at 10 mg/kg or vehicle per day and tumor volume was measured every 4 days. B: After 28 days of treatment, tumors were isolated from mice in each group and photographed. Data are represented as means±s.d., n=8. Statistical significance was determined by two-way ANOVA. […] D: AR was knocked down by specific shRNAs in C4-2CON and C4-2ENZ-R cells, and cell proliferation was measured by SRB assay. […] Statistical significance was determined by two-way ANOVA. E: Venn diagram showing AR chromatin binding peaks in C4-2CON and C4-2ENZ-R cells detected by ChIP-seq. F: Heatmaps showing ChIP-seq read intensity of AR, H3K27ac, and FOXA1 in C4-2CON and C4-2ENZ-R cells. […]
FIGS. 6A-6G. […] Representative images (scale bar, 50 μm), and quantified data are show in (a) and (b), respectively. […] Tumor size was measured every 4 days (d). After 28 days of treatment, tumors isolated from mice were photographed (e), and tumor weight was measured (f). […]

CRPC PDX = test: CRPC patient-derived xenograft (PDX) tumor growth in mice; assay type: in vivo; conditions: ENZ 10 mg/kg daily, 32 days
Text: FIG. 11A-D. Upregulation of CXXC5 and ID1 in AFI-resistant PCa patients. A: H&E staining and IHC for AR, CXXC5, and ID1 in hormone naïve, CRPC and ENZ-resistant PC patient specimens. Scale bar, 200 μm. B: H&E staining and IHC for AR, CXXC5, and ID1 in ABI-resistant ARPC patient specimens. Scale bar, 200 m (low magnification); 50 m (high magnification). C-D: Comparison of ENZ response in CRPC and ENZ-resistant PDXs. CRPC and ENZ-resistant PDXs were planted into the right flank of 6 week-old male SCID mice. After the tumor volume reached about 100 mm^3, mice were randomly assigned within each tumor group and treated with 10 mg/kg of […] daily. Tumor size was measured every 4 days (C). After 32 days of treatment, tumors were isolated and photographed (D). Data are represented as means±s.d., n=8. Statistical significance was determined by two-way ANOVA.
NOD-SCID male mice were generated in house and used for animal experiments. All mice were housed under standard conditions with a 12 hour light/dark cycle and access to food and water ad libitum and maintained under pathogen-free conditions. […] Mice were treated 5 days per week by oral gavage and tumor growth was measured in a blinded fashion using digital calipers. The tumor volume was calculated using the following equation: tumor volume=length×width×width×0.5.

Structure (SMILES)	sensitivity of C4-2ENZ-R cells compared with C4-2CON cells by half maximal inhibitory concentration (IC50) (C4-2ENZ-R cells)	response of ENZ-resistant PDXs to treatment (ENZ-resistant PDXs)	growth of C4-2ENZ-R xenografts under ENZ treatment in vivo (C4-2ENZ-R xenografts)	growth of C4-2ENZ-R cells under ENZ treatment in vitro (C4-2ENZ-R cells; in vitro, FIG. 7A)	response of CRPC PDX to treatment (CRPC PDX)
C[C@@H]1CC(=O)Nc2cccc(-c3ccc4c(c3)c(-c3cnn(C)c3)nn4C)c2N1 [CPI637]	much more sensitive	responded	–	–	–
Cc1sc2c(c1C)C(c1ccc(Cl)cc1)=N[C@@H](CC(=O)OC(C)(C)C)c1nnc(C)n1-2 [JQ1]	much more sensitive	responded	–	–	–
CNC(=O)c1ccc(N2C(=S)N(c3ccc(C#N)c(C(F)(F)F)c3)C(=O)C2(C)C)cc1F [ENZ, enzalutamide]	–	–	resistant to ENZ treatment	resistant to ENZ treatment	still responded
